Reference: PMC4689404, “2-Benzazolyl-4-Piperazin-1-Ylsulfonylbenzenecarbohydroxamic Acids as Novel Selective Histone Deacetylase-6 Inhibitors with Antiproliferative Activity” (PLoS ONE, 2015)
Like-named read-outs stand apart in the source and are kept apart here.

How the values were obtained:
[1] = test system: epigenetically silenced GFP transgene in LDR cells; assay: locus derepression (LDR) assay, GFP induction; format: cell-based
Protocol: LDR cells were maintained in DMEM with L-glutamine and high glucose, 1 mM sodium pyruvate, 0.1 mM MEM non-essential amino acids, 1% v/v penicillin-streptomycin and 10% heat inactivated FBS. Cells were seeded on glass bottom chambers at low-medium density and allowed to attach overnight. Compounds were then added for 24h at the indicated dose and cells were imaged under a fluorescent microscope equipped with a camera using a 20 or 40X objective. All images shown were exposed for identical time.

HCC4017 = assay: MTS viability assay; format: cell-based, human; settings: for IC50: Homo sapiens, HCC4017, 96 h, Patient A cancer line, MTS, 4 days, read-out: Antiproliferative activity IC50, HCC4017; for Selectivity (HBEC-30KT vs HCC4017): Patient A
Protocol: (§1) Immortalized normal human bronchial epithelial cells (also provided by Dr. John D. Minna) were cultured in KSFM supplemented with pituitary extract and EGF. For viability assays, cells were plated on 96 well plates and grown overnight. Cells were then exposed to increasing doses of the indicated compounds for 4 days and their viability assayed using the Promega Cell Titer 96 AQueous One kit per the manufacturer’s protocol. All doses were tested in 4–8 replicates. IC50 values were calculated using the in-house software DIVISA.

HCC4018 = assay: MTS viability assay; format: cell-based, human; settings: for IC50: Homo sapiens, 96 h, Patient B cancer line, MTS, 4 days, read-out: Antiproliferative activity IC50, HCC4018; for Selectivity (HBEC-34KT vs HCC4018): Patient B
Protocol: as §1

HBEC-30KT = assay: MTS viability assay; format: cell-based, human; settings: Homo sapiens, 96 h, Patient A normal line, 4 days, read-out: Antiproliferative activity IC50, HBEC-30KT
Protocol: as §1, with “Lung cancer cells (kindly provided by Dr. John D. Minna, [13, 21]) were maintained in RPMI 1640 media supplemented with 10% FBS. Immortalized” for “Immortalized”

HBEC-34KT = assay: MTS viability assay; format: cell-based, human; settings: Homo sapiens, 96 h, Patient B normal line, 4 days, read-out: Antiproliferative activity IC50, HBEC-34KT
Protocol: as §1, with “Lung cancer cells (kindly provided by Dr. John D. Minna, [13, 21]) were maintained in RPMI 1640 media supplemented with 10% FBS. Immortalized” for “Immortalized”

recombinant HDAC1 = biological target: T1, recombinant HDAC1 (Homo sapiens, UniProt Q13547); assay: comparative HDAC inhibition assay (Millipore fluorometric kit); format: biochemical; settings: recombinant HDAC1, fluorometric substrate; Table 4
T1 construct: purchased Epigenetek
T1 sequence (Q13547 whole entry): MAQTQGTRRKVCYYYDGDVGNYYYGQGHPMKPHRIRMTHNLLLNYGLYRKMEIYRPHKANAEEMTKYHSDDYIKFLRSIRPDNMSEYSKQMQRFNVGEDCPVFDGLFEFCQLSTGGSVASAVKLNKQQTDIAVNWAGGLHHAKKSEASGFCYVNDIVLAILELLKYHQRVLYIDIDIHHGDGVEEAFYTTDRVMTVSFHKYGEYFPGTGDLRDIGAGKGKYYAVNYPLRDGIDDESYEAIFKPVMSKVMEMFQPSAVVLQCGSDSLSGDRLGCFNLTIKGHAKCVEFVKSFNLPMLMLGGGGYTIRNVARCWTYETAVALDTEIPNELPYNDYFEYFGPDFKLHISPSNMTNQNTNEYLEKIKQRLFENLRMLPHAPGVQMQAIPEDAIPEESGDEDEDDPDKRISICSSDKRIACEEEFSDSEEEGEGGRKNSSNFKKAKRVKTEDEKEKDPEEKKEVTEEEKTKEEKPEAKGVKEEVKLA
Protocol: (§2) For the direct comparison of HDAC1 vs. HDAC6 inhibition, HDAC activity was analyzed using the HDAC Assay Kit from Millipore (17–356). Briefly, recombinant HDAC1 or recombinant HDAC6 (both purchased from Epigenetek, Purity of HDAC1 is more than 60% and purity HDAC6 is more than 85%). was incubated with the fluorometric HDAC substrate according to the manufacturer’s protocol in the presence of DMSO vehicle or increase compound doses. In a secondary activator reaction, the fluorophore is only cleaved from the deacetylated substrate, allowing for quantification. Fluorescence was quantified on a FLUOstar-Optima or a FLUOstar Omega plate reader (BMG Biosciences).

recombinant HDAC6 = biological target: T2, recombinant HDAC6 (Homo sapiens, UniProt Q9UBN7); assay: as above; format: biochemical
T2 construct: purchased Epigenetek
T2 sequence (Q9UBN7 1-1215): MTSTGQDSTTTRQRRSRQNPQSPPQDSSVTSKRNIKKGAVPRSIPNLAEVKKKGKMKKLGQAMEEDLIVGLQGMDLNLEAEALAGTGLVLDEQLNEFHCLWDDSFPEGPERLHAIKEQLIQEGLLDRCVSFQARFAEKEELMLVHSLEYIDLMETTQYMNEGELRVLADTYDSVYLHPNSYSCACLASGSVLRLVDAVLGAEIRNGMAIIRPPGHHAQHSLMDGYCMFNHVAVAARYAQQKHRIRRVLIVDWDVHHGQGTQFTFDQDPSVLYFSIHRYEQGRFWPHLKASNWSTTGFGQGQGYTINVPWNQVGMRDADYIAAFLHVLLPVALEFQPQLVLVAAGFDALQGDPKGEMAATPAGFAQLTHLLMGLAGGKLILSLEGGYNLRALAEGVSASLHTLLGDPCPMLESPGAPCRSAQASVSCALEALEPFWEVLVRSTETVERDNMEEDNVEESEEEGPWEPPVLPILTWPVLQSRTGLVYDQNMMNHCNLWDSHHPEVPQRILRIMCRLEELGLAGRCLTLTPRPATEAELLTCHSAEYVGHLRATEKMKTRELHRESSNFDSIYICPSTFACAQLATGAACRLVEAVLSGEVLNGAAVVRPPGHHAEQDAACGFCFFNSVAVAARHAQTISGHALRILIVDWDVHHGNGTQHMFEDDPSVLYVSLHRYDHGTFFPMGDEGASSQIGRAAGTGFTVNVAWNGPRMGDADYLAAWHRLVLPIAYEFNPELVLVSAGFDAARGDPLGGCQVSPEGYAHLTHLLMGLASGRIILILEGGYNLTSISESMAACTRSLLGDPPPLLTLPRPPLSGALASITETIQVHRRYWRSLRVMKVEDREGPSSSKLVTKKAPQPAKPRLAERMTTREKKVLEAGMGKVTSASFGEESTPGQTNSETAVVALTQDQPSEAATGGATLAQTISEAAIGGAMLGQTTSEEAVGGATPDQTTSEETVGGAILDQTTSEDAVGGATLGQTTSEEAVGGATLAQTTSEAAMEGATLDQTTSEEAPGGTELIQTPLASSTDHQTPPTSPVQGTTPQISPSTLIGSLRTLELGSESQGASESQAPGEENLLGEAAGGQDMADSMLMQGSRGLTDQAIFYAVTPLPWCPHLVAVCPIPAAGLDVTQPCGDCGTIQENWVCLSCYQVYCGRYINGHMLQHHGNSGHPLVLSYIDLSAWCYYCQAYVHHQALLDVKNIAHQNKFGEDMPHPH
Protocol: as §2

[2] = Table 3, read-out: HDAC6 pIC50 (converted)
[3] = recombinant HDAC6, fluorometric substrate, Table 4, read-out: HDAC6 IC50

IC50 (HCC4017) [nM] | IC50 (HCC4018) [nM] | IC50 (recombinant HDAC1) [nM] | IC50 (recombinant HDAC6; [2]) [nM] | Selectivity Index HDAC1/HDAC6 (recombinant HDAC6; Table 4) | IC50 (recombinant HDAC6; [3]) [nM] | Structure (SMILES) | activation of the silenced GFP gene (GFP expression) ([1]; compound at 20μM, fluorescence microscopy) | Selectivity (HBEC-30KT vs HCC4017) (HCC4017) | Selectivity (HBEC-34KT vs HCC4018) (HCC4018) | IC50 (HBEC-30KT) [nM] | IC50 (HBEC-34KT) [nM] | GFP induction / activity in the LDR assay [1]
1490 | 6100 | 3700 ± 1700 | 100 | 28.4 | 130 ± 70 | Cn1c(N2CCN(S(=O)(=O)c3ccc(C(=O)NO)cc3)CC2)nc2ccccc21 [Compound 9b, 4-[4-(1-methylbenzimidazol-2-yl)piperazin-1-yl]sulfonylbenzenecarbohydroxamic acid] | robust GFP expression | > 6.71 | > 1.64 | > 10000 | > 10000 | 
1240 | 5050 | 920 ± 160 | 200 | 4.3 | 220 ± 40 | O=C(NO)c1ccc(S(=O)(=O)N2CCN(c3nc4ccccc4o3)CC2)cc1 [Compound 9c, 4-(4-Benzoxazol-2-yl-piperazin-1-sulfonyl)-N -hydroxy-benzamid] |  | > 8.06 | > 1.98 | > 10000 | > 10000 | high level of GFP induction
1630 | 4000 | 900 ± 450 | 100 |  | 130 ± 20 | O=C(NO)c1ccc(S(=O)(=O)N2CCN(c3nc4ccccc4s3)CC2)cc1 [Compound 9d, 4-(4-Benzothiazol-2-yl-piperazin-1-sulfonyl)-N -hydroxy-benzamid] |  | 3.29 | 2.06 | 5370 | 8220 | high level of GFP induction
